# Source: patent publication US20220031684A1, “PROPHYLACTIC EFFICACY OF SEROTONIN 4 RECEPTOR AGONISTS AGAINST STRESS” (THE TRUSTEES OF COLUMBIA UNIVERSITY IN THE CITY OF NEW YORK, priority 2019, published 2022)
# Experiments:
# 129S6/SvEv mice [1] = assay: 3-shock contextual fear conditioning (CFC); assay type: in vivo; settings: for freezing during CFC training / freezing at re-exposure to the training context (learned fear) vs saline: male 129S6/SvEv; for freezing during CFC training: (R,S)-ketamine 30, prucalopride 3 or 10, PF-04995274 3 or 10 mg/kg, 1 week before CFC, vs saline; for freezing at re-exposure to the training context (learned fear) vs saline: single i.p. injection 1 week before CFC, re-exposure 5 days later
# Experimental: (§1) This chronic CORT elevation dysregulates the hypothalamic-pituitary-adrenal axis (HPA) in a manner similar to that observed in clinical depression. The dose and duration of CORT treatment was selected based on previous studies. CORT (35 μg/ml, equivalent to about 5 mg/kg/day) dissolved in 0.45% hydroxypropyl-o-cyclodextrin (0-CD) or vehicle (VEH) (0.45% j-CD) was available ad libitum in the drinking water in opaque bottles to protect it from light. VEH- and CORT-treated water was changed every 3 days to prevent possible degradation. Contextual Fear Conditioning (CFC): A 3-shock CFC procedure was administered as previously published. Briefly, mice were placed into context A and administered 3 2-s shocks (0.75 mA) at 180 s, 240 s or 300 s following placement into context A. Mice were removed from the context 15 s following the termination of shock (at 317 s). For context retrieval, mice were placed back into context A for 300 s. Electrophysiology: Electrophysiology was conducted as previously described. Statistical Analysis: Results from data analyses are expressed as means±SEM. Alpha was set to 0.05 for all analyses. Data were analyzed using GraphPad Prism v7.0 or v8.0. For all experiments, unless otherwise noted, one- or two-way ANOVAs with repeated-measures were applied to the data as appropriate. Significant main effects and/or interactions were followed by Fisher's PLSD post hoc analysis or unpaired t-tests. Drugs: All drugs were prepared in physiological saline and all injections were administered intraperitoneally (i.p.) in volumes of 0.1 cc per […] body weight unless otherwise noted. Fluoxetine hydrochloride (Flx): Flx (BioTrend Chemicals AG, BG197, Zurich, Germany) was administered in the drinking water (18 mg/kg/day) for 3 weeks before the start of CORT. […] (R,S)-ketamine (K): (R,S)-ketamine (Ketaset III, Ketamine HCl injection, Fort Dodge Animal Health, Fort Dodge, Iowa) was administered in a single dose at 30 mg/kg of body weight 1 week before the start of CFC. […] PF-04995274: PF-04995274 (Sigma, Catalog No. 1331782-27-4, St. Louis, Mo.) was administered a single dose at 3 or 10 mg/kg of body weight 1 week before the start of CFC. PF-04995274 was dissolved in saline using an ultrasonic homogenizer (BioLogics, Model 3000, Manassas, Va.). Osmotic minipump implantation: ALZET osmotic minipumps (Model 2004, […], 28 days) were implanted subcutaneously under isoflurane anesthesia as previously described [S2]. Osmotic minipumps were rotated under the skin two to three times per week. Behavioral Assays: All experiments were approved by the Institutional Animal Care and Use Committee (IACUC) at the New York Psychiatric Institute (NYSPI). Elevated Plus Maze (EPM): Testing was performed as previously described [S3]. Briefly, the maze is a plus-cross-shaped apparatus consisting of four arms, two open and two enclosed by walls, linked by a central platform at a height of 50 cm from the floor. Mice were individually placed in the center of the maze facing an open arm and were allowed to explore the maze for 5 min. The time spent in and the number of entries into the open arms was used as an anxiety index. Videos were scored using ANY-maze behavior tracking software (Stoelting, Wood Dale, Ill.). Novelty-Suppressed Feeding: The NSF is a conflict test that elicits competing motivations: the drive to eat and the fear of venturing into the center of a brightly lit arena. The latency to feed is used as an index of anxiety-like behavior, because classical anxiolytic drugs decrease this measure. The NSF test was carried out during an 8 min period as previously described [S3]. Briefly, the testing apparatus consisted of a plastic box (50×50×20 cm), the floor of which was covered with approximately 2 cm of bedding. For 129S6/SvEv experiments, mice were food restricted for 12 h. For the C57BL/6N experiments, mice were food restricted for 24 h. […]
# 129S6/SvEv mice [2] = assay: Forced swim test (FST) after CFC; assay type: in vivo; settings: for immobility, FST day 1 / immobility time, FST day 2 vs saline: male 129S6/SvEv; for immobility, FST day 1: (R,S)-ketamine 30, prucalopride 3 or 10, PF-04995274 3 or 10 mg/kg; for immobility time, FST day 2 vs saline: single injection 1 week before CFC
# Experimental: as §1
# CA3 pyramidal cells = assay: Whole-cell voltage clamp recordings of spontaneous EPSCs in CA3 slices; assay type: cell-based, mice; settings: (R,S)-ketamine 30 mg/kg or prucalopride 3 mg/kg injected 1 week before slicing
# Experimental: as §1
# [3] = FIG. 4 cohort, Male, FIG. 4C, RMANOVA, Fisher's LSD
# [4] = FIG. 4 cohort, Male, FIG. 4D, ANOVA, Fisher's LSD
# [5] = FIG. 4 cohort, Male, FIG. 4F, RMANOVA, Fisher's LSD
# [6] = FIG. 4 cohort, Male, FIG. 4G, ANOVA, Fisher's LSD
smiles,measurement,setting,value
OC1(CN2CCC(COc3noc4cccc(OC5CCOC5)c34)CC2)CCOCC1 (stereo not drawn) [PF-04995274],"p, CFC Re-exposure Freezing (%), PF04995274 (3 mg/kg) vs. PF04995274 (10 mg/kg)",129S6/SvEv mice [1]; [3],0.0619
same,"p, CFC Re-exposure Freezing (%), Saline vs. PF04995274 (3 mg/kg)",129S6/SvEv mice [1]; [3],0.6871
same,"p, CFC Re-exposure Freezing (%), Saline vs. PF04995274 (10 mg/kg)",129S6/SvEv mice [1]; [3],0.0255
same,"p, CFC Re-exposure, PF04995274 (3 mg/kg) vs. PF04995274 (10 mg/kg)",129S6/SvEv mice [1]; [4],0.0619
same,"p, CFC Re-exposure, Saline vs. PF04995274 (3 mg/kg)",129S6/SvEv mice [1]; [4],0.6871
same,"p, CFC Re-exposure, Saline vs. PF04995274 (10 mg/kg)",129S6/SvEv mice [1]; [4],0.0255
same,freezing during CFC training,129S6/SvEv mice [1],comparable levels of freezing
same,freezing at re-exposure to the training context (learned fear) vs saline,129S6/SvEv mice [1]; 10 mg/kg,attenuated learned fear
same,"p, FST Day 2 Immobility Time (sec), PF04995274 (3 mg/kg) vs. PF04995274 (10 mg/kg)",129S6/SvEv mice [2]; [5],0.0941
same,"p, FST Day 2 Immobility Time (sec), Saline vs. PF04995274 (3 mg/kg)",129S6/SvEv mice [2]; [5],0.1259
same,"p, FST Day 2 Immobility Time (sec), Saline vs. PF04995274 (10 mg/kg)",129S6/SvEv mice [2]; [5],0.0023
same,"p, FST Day 2 Immobility Time (min 3-6) (sec), Saline vs. PF04995274 (3 mg/kg)",129S6/SvEv mice [2]; [6],0.1050
same,"p, FST Day 2 Immobility Time (min 3-6) (sec), Saline vs. PF04995274 (10 mg/kg)",129S6/SvEv mice [2]; [6],0.0027
same,"immobility, FST day 1",129S6/SvEv mice [2],comparable levels of immobility
same,"immobility time, FST day 2 vs saline",129S6/SvEv mice [2]; 10 mg/kg,decreased immobility time
"CNC1(c2ccccc2Cl)CCCCC1=O (racemic) [(R,S)-ketamine]","p, CFC Re-exposure Freezing (%), (R,S)-ketamine (30 mg/kg) vs. PF04995274 (3 mg/kg)",129S6/SvEv mice [1]; [3],0.1027
same,"p, CFC Re-exposure Freezing (%), (R,S)-ketamine (30 mg/kg) vs. PF04995274 (10 mg/kg)",129S6/SvEv mice [1]; [3],0.8015
same,"p, CFC Re-exposure Freezing (%), (R,S)-ketamine (30 mg/kg) vs. Prucalopride (3 mg/kg)",129S6/SvEv mice [1]; [3],0.1343
same,"p, CFC Re-exposure Freezing (%), (R,S)-ketamine (30 mg/kg) vs. Prucalopride (10 mg/kg)",129S6/SvEv mice [1]; [3],0.1023
same,"p, CFC Re-exposure Freezing (%), Saline vs. (R,S)-ketamine",129S6/SvEv mice [1]; [3],0.0448
same,"p, CFC Re-exposure, (R,S)-ketamine (30 mg/kg) vs. PF04995274 (3 mg/kg)",129S6/SvEv mice [1]; [4],0.1027
same,"p, CFC Re-exposure, (R,S)-ketamine (30 mg/kg) vs. PF04995274 (10 mg/kg)",129S6/SvEv mice [1]; [4],0.8015
same,"p, CFC Re-exposure, (R,S)-ketamine (30 mg/kg) vs. Prucalopride (3 mg/kg)",129S6/SvEv mice [1]; [4],0.1343
same,"p, CFC Re-exposure, (R,S)-ketamine (30 mg/kg) vs. Prucalopride (10 mg/kg)",129S6/SvEv mice [1]; [4],0.1023
same,"p, CFC Re-exposure, Saline vs. (R,S)-ketamine",129S6/SvEv mice [1]; [4],0.0448
same,freezing during CFC training,129S6/SvEv mice [1],comparable levels of freezing
same,freezing at re-exposure to the training context (learned fear) vs saline,129S6/SvEv mice [1]; 30 mg/kg,attenuated learned fear
same,"p, FST Day 2 Immobility Time (sec), (R,S)-ketamine (30 mg/kg) vs. PF04995274 (3 mg/kg)",129S6/SvEv mice [2]; [5],0.4094
same,"p, FST Day 2 Immobility Time (sec), (R,S)-ketamine (30 mg/kg) vs. PF04995274 (10 mg/kg)",129S6/SvEv mice [2]; [5],0.3813
same,"p, FST Day 2 Immobility Time (sec), (R,S)-ketamine (30 mg/kg) vs. Prucalopride (3 mg/kg)",129S6/SvEv mice [2]; [5],0.8332
same,"p, FST Day 2 Immobility Time (sec), (R,S)-ketamine (30 mg/kg) vs. Prucalopride (10 mg/kg)",129S6/SvEv mice [2]; [5],0.1712
same,"p, FST Day 2 Immobility Time (sec), Saline vs. (R,S)-ketamine (30 mg/kg)",129S6/SvEv mice [2]; [5],0.0218
same,"p, FST Day 2 Immobility Time (min 3-6) (sec), (R,S)-ketamine (30 mg/kg) vs. PF04995274 (3 mg/kg)",129S6/SvEv mice [2]; [6],0.5815
same,"p, FST Day 2 Immobility Time (min 3-6) (sec), (R,S)-ketamine (30 mg/kg) vs. PF04995274 (10 mg/kg)",129S6/SvEv mice [2]; [6],0.3207
same,"p, FST Day 2 Immobility Time (min 3-6) (sec), (R,S)-ketamine (30 mg/kg) vs. Prucalopride (3 mg/kg)",129S6/SvEv mice [2]; [6],0.8478
same,"p, FST Day 2 Immobility Time (min 3-6) (sec), (R,S)-ketamine (30 mg/kg) vs. Prucalopride (10 mg/kg)",129S6/SvEv mice [2]; [6],0.1763
same,"p, FST Day 2 Immobility Time (min 3-6) (sec), Saline vs. (R,S)-ketamine (30 mg/kg)",129S6/SvEv mice [2]; [6],0.0330
same,"immobility, FST day 1",129S6/SvEv mice [2],comparable levels of immobility
same,"immobility time, FST day 2 vs saline",129S6/SvEv mice [2]; 30 mg/kg,decreased immobility time
same,average EPSC amplitude vs saline,CA3 pyramidal cells,no differences
same,large AMPA receptor-mediated bursts of EPSCs,CA3 pyramidal cells,not present
same,number of EPSCs vs saline,CA3 pyramidal cells,no differences
